The values below are quoted from earlier work in patent publication US20090214682A1, “Composition and methods for weight loss in a subject” (priority 2008, published 2009).

Read-outs that look alike come from different tables or passages of the source.

For data set [1] the following is noted: rats.
Assay in data set [2]: not given
The source holds these as a separate data set.

For data set [3] the following is noted: vs placebo.
Assay in data set [4]: not given
The source holds these as a separate data set.

For data set [5] the following is noted: rats, high fat diet, 12 weeks.
For data set [6] the following is noted: obese women.
Assay in data set [7]: not given
This is another data set of the same source.

For data set [8] the following is noted: 8 weeks, overweight subjects, vs placebo.

Regarding `O=C(O)CC(O)(C(=O)O)C(O)C(=O)O` (stereo not shown) [HCA, 1,2-dihydroxypropane-1,2,3-tricarboxylic acid], the caloric intake entry (clinical studies) was “reduction in caloric intake”. Further, the blood cholesterol profile result (daily, moderate exercise, 8 weeks) is on record as “improved blood cholesterol profile”. The weight loss entry (daily, moderate exercise, 8 weeks, vs placebo) is recorded as “increased weight loss”. Moreover, where the note is “human, in vivo”, the serotonin levels entry is listed as “significantly increased”. Moreover, the “fat oxidation during exercise” value (untrained men and women) was “increasing fat oxidation”. Moreover, in [1], the appetite entry is “repress appetite” and the fatty acid synthesis entry is “inhibit fatty acid synthesis”.

As for `[Cr]` [Chromium], in data set [2] (combined with exercise), the body fat entry is reported as “reduce body fat” and the lean mass entry is recorded as “increase lean mass”. For the same compound, the HDL cholesterol entry in data set [2] (human, in vivo) is “increase HDL”.

For the compound `CCCCCCCCCCCC(C[C@@H]1OC(=O)[C@H]1CCCCCC)OC(=O)[C@H](CC(C)C)NC=O` (stereo partly drawn) [orlistat, N-formyl-L-leucine-1-[[(2S,3S)-3-hexyl-4oxo-2-oxetanyl]methyl]dodecyl ester], in data set [3] (one year treatment), the LDL cholesterol levels entry is listed as “greater improvements then placebo” and the total serum cholesterol result is recorded as “greater improvements then placebo”. Further, the weight loss result in [3] (persons with type 2 diabetes) was “more significant weight loss then the placebo group”. Further, the tolerability entry in data set [4] (60 mg vs larger dose) is recorded as “generally better tolerated”. The “efficacy for weight loss relative to prescription dose” value in data set [4] (OTC 60 mg vs prescription 120 mg) is given as “about 85%”. Also, in data set [4] (OTC dose 60 mg), the “inhibition of absorption of ingested fats” value was “about 25%”. Besides, the “average weight loss of initial body weight” value in [4] (OTC dose 60 mg, over 16 weeks) is reported as “about 5%”.

Consider `Cn1c(=O)c2c(ncn2C)n(C)c1=O` [caffeine, 3,7-dihydro-1,3,7-trimethyl-1H-purine-2,6-dione], for which the body fat result in data set [5] was “generally reduced”. Moreover, in data set [5] (vs control group), the “abdominal adipose tissue weight” value is “significant decrease” and the serum triglyceride levels result is listed as “significant decrease”. For the same compound, the weight loss entry in data set [6] is recorded as “Significant weight loss”.

For `Cn1c(=O)c2[nH]cnc2n(C)c1=O` [theophylline, 3,7-dihydro-1,3-dimethyl-1H-purine-2,6-dione], in [5], the body fat result is recorded as “generally reduced”.

Consider chromium polynicotinate, for which the systolic blood pressure entry in data set [7] (vs control groups) is recorded as “effective in lowering systolic blood pressure”. Further, in [7] (vs controls), the “free radical damage in liver and kidney tissue” value was “less free radical damage”. For the same compound, in data set [8], the body fat result is on record as “significant loss of body fat”.
